These results are taken from article PMC5010537, “Purification and characterization of laccase from Marasmius species BBKAV79 and effective decolorization of selected textile dyes” (3 Biotech, 2016).

For this experiment, the system named is T1, laccase from Marasmius sp. BBKAV79.
T1 construct: gene benzenediol:oxygen oxidoreductase; native extracellular enzyme purified from culture supernatant (ammonium sulfate, Sephadex G-100, DEAE-cellulose); monomer, ~75 kDa by native PAGE
The experiment can be described thus: absorbance at […] nm, Lineweaver-Burk plot. The conditions noted are these: 100 mM sodium acetate buffer pH 5.5; guaiacol 0.18-10 mM; free enzyme. Type of experiment: biochemical. From the text: BBKAV79 | K m and V max of purified laccase from Marasmius sp.

SMILES strings stand for the structures.

As a reminder, the Km is the substrate concentration at which the rate is half of its maximum. In the case of `COc1ccccc1O` [guaiacol], the Km was determined as 3.03 mM.
